According to PubChem BioAssay AID179 (DTP/NCI, 2004):
Calls of active or inactive are those of the source.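 Rule for the calls: active = compounds giving half or more protection of infected cells from virus-caused growth loss, again on retest; inactive = the rest.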

Tested on: CEM cells HIV-1 protection, formazan growth assay
Assay: NCI AIDS Antiviral Assay
Settings: for IC50: measured here: growth of uninfected CEM cells
How it was run: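 Five concentrations of each compound were applied to infected and uninfected human CEM cells. Protection from HIV-1 was judged from growth measured with a soluble formazan assay.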

SMILES | EC50 [µM] | IC50 [µM] | outcome
CN(C)C(=S)SSSC(=S)N(C)C | > 20 | 0.513 | 
Clc1ccc(NCc2nnc(CCCCCCCCc3nnc(CNc4ccc(Cl)cc4)o3)o2)cc1 | > 200 | > 200 | 
CCOC(=O)C1=C(O)C2C3CC4C2C(O)=C(C(=O)OCC)C2C1C3C42 (centres undefined) | > 200 | 93.3 | 
CC(/C=N/Nc1ccc([N+](=O)[O-])cn1)=N/Nc1ccc([N+](=O)[O-])cn1 | > 200 | > 200 | 
CC12Nc3c(Cl)cc(Cl)cc3N1C(=O)c1ccccc12 (centres undefined) | > 200 | 87.1 | 
CCOC(=O)CN1C(=O)S/C(=C2\C(=O)N(C)c3ccc(Br)cc32)C1=O | > 200 | > 200 | 
CC1=NN(C(=O)CC(=O)Nc2ccc(C)cc2)C(=O)C1N=Nc1ccc(S(N)(=O)=O)cc1 (centres undefined) | > 0.631 | > 0.631 | 
COc1ccc(Cc2c(-c3ccc(C)cc3)n[nH]c(=O)c2C2C(=O)N(c3ccccc3)N=C2c2ccccc2)cc1 (centres undefined) | > 200 | 38 | 
CCOc1cnn(-c2ccccc2)c(=O)c1SCc1ccc(Cl)c(Cl)c1 | > 33.1 | 18.6 | 
CCOC(=O)c1cnc2c3c(noc13)CCC2 | > 200 | 34.7 | 
COc1nc(NC2OC(COC(C)=O)C(OC(C)=O)C(OC(C)=O)C2OC(C)=O)c(N=CC=Nc2c(NC3OC(COC(C)=O)C(OC(C)=O)C(OC(C)=O)C3OC(C)=O)nc(OC)[nH]c2=O)c(=O)[nH]1 (centres undefined) |  |  | inactive
Cc1cccnc1NC(=O)NCCCl | > 200 | > 200 | 
C=C[C@H]1C=Cc2c(OC)cccc2[C@@H]1COP1(=S)NC(C)C(c2ccccc2)O1 (some centres undefined) |  |  | inactive
O=C1C[C@H](c2ccc(O)c(O)c2)Oc2cc(O)cc(O)c21 | > 631 | 97.7 | 
Cc1cn(C2CC(N=[N+]=[N-])C(COP(=O)(O)OCC3CCC(n4ccc(N)nc4=O)O3)O2)c(=O)[nH]c1=O (centres undefined) | 0.0468 | 20 | 
C=C1CC(Cn2cc(C)c(=O)[nH]c2=O)(c2ccc(Cl)cc2)OC1=O (centres undefined) | > 20 | 0.617 | 
CC(C)(C)Cc1cc(O)ccc1O | > 6.03 | 3.39 | 
O=Nc1c(O)cc(Nc2ccc(Br)cc2)c2ccccc12 | > 200 | 39.8 | 
CCOP(=Nc1ccc(N(C)C)cc1)(OCC)OCC | > 200 | > 200 | 
N#Cc1cccc(C2SCc3nc4ccccc4n32)c1 (centres undefined) | 19.5 | 60.3 | 
S=C(Nc1ccccc1)Nc1[nH]c(=S)sc1-c1nc2ccccc2[nH]1 | > 1.86 | > 1.86 | 

SMILES | EC50 [µM] | IC50 [µM] | outcome
Cc1c(N2CCOCC2)nc2ccc(Cl)cc2c1-c1ccccc1 | > 4.27 | > 4.27 | 
O=C(Sc1c(-c2ccccc2)c(=O)n(-c2ccccc2)c(=S)n1-c1ccccc1)c1ccc(Cl)cc1 | > 200 | 19.5 | 
O=C1/C(=C/c2ccccc2)CCc2ccc([N+](=O)[O-])cc21 | > 200 | 11.2 | 
N#CC1=C(c2ccccc2)C(=C2Nc3ccccc3N2)C2S/C(=C\c3ccccc3)C(=O)N2C1=N (centres undefined) | > 2.19 | > 2.19 | 
COc1ccc2oc(=N)c(C(N)=S)cc2c1 | > 200 | 26.9 | 
CCN(CC)CCCC(C)Nc1c(Sc2cnc3cc(Cl)ccc3c2NC(C)CCCN(CC)CC)cnc2cc(Cl)ccc12 (centres undefined) | > 309 | 1.7 | 
COC(=O)[C@@]12OC[C@]34[C@H]([C@@H](O)[C@@H]1O)[C@@]1(C)CC(=O)C(O)=C(C)[C@@H]1C[C@H]3OC(=O)[C@H](OC(=O)/C=C(\C)C(C)C)[C@@H]24 | > 123 | 0.0389 | 
O=[N+]([O-])c1cc(C(F)(F)F)cc2c1SC1=Nc3ccccc3CN12 |  |  | inactive
CC(C)=CCNc1ncnc2c1ncn2CCC(=O)O | > 200 | > 200 | 
CC12c3ccccc3C(OC=O)(c3ccccc31)C1(C)c3ccccc3C2(OC=O)c2ccccc21 | > 3.09 | > 3.09 | 
Cc1cc2ccccc2n1CC(=O)NCC(C)C | > 200 | > 200 | 
ClCC[N+]12CC[N+](CCCl)(CC1)C2 |  |  | inactive
COC(=O)C1CCCN1 (centres undefined) |  |  | inactive
O=C(Nc1ccccc1)N(CCCCN(Cc1ccccc1)C(=O)Nc1ccccc1)Cc1ccccc1 | > 200 | 112 | 
O=c1c(NCc2ccccc2)c(C2(c3ccccc3F)SCCCS2)c1=O | > 200 | 151 | 
CCOC(=O)c1nc2cc(C(F)(F)F)ccc2nc1Oc1ccc(C(=O)OC)cc1 | > 200 | 95.5 | 
Cc1nnc2c3nccnc3c(Cl)nn12 | > 200 | 2.34 | 
Nc1cccc(OCC2CCCN3CCCCC23)c1 (centres undefined) | > 200 | 13.8 | 
CCCCS(=O)CCC(N)C(=O)O (centres undefined) | > 100 | > 100 | 
N#CC(C#N)=Cc1ccccc1Br | > 191 | 3.31 | 
O=C1C(c2cnc3ccccc3n2)=C(O)c2ccccc21 | > 2.63 | > 2.63 | 
